Measurements: ChEMBL document CHEMBL1201862, “PubChem BioAssay data set” (2004)
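Exposure lasted 48 hours, with cells grown in 96-well plates and compounds tested at five concentrations. Here, GI50 denotes the concentration required for 50% inhibition of growth.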 Calls of active or inactive are those of the source. Rule as the data show it: active = GI50 up to about 1.1 µM and inactive = higher.

Tests used:
Experiment in all cases: NCI tumour cell line growth inhibition, 48 h
BT-549 = tested on: BT-549
OVCAR-4 = tested on: OVCAR-4
RXF 393 = tested on: RXF 393
MDA-MB-231 = tested on: MDA-MB-231
NCI/ADR-RES = tested on: NCI/ADR-RES
UACC-257 = tested on: UACC-257
A498 = tested on: A498
T47D = tested on: T47D
MDA-N = tested on: MDA-N
NCI-H522 = tested on: NCI-H522
Hs-578T = tested on: Hs-578T
MCF7 = tested on: MCF7
DU-145 = tested on: DU-145
SF-295 = tested on: SF-295
COLO 205 = tested on: COLO 205
KM-20L2 = tested on: KM-20L2
LXFL 529 = tested on: LXFL 529
XF498 = tested on: XF498
DMS-114 = tested on: DMS-114

Measured: GI50

O=Nn1c2ccccc2c2cc([N+](=O)[O-])ccc21
inactive: BT-549 17.2 µM | OVCAR-4 16.8 µM | RXF 393 16.4 µM | MDA-MB-231 18.9 µM | NCI/ADR-RES 20.2 µM | UACC-257 22.9 µM | A498 12.4 µM | T47D 31.1 µM | MDA-N 17.2 µM | NCI-H522 10.9 µM | Hs-578T 31.7 µM | MCF7 22.9 µM | DU-145 14.3 µM | SF-295 15.2 µM | COLO 205 34.3 µM

CNC(=O)OC(C)CN1c2ccccc2Sc2ccc(Cl)cc21 (centres undefined)
inactive: OVCAR-4 > 10 µM | RXF 393 > 10 µM | MDA-MB-231 > 10 µM | NCI/ADR-RES > 10 µM | A498 > 10 µM | T47D > 10 µM | MDA-N > 10 µM | NCI-H522 > 10 µM | Hs-578T > 10 µM | MCF7 > 10 µM | DU-145 > 10 µM | SF-295 > 10 µM | COLO 205 > 10 µM

CC1(C)OCC(CO)(CO)CO1
inactive: OVCAR-4 > 100 µM | RXF 393 > 100 µM | MDA-MB-231 > 100 µM | NCI/ADR-RES > 100 µM | UACC-257 > 100 µM | A498 14 µM | T47D > 100 µM | MDA-N > 100 µM | NCI-H522 > 100 µM | Hs-578T > 100 µM | MCF7 > 100 µM | DU-145 > 100 µM | SF-295 > 100 µM | COLO 205 > 100 µM

CNC(=O)OCC1=C(COC(=O)NC)CN(c2ccc(OC)cc2)C1
inactive: BT-549 > 100 µM | OVCAR-4 > 100 µM | RXF 393 > 100 µM | MDA-MB-231 > 100 µM | NCI/ADR-RES > 100 µM | UACC-257 > 100 µM | A498 1.9 µM | T47D > 100 µM | MDA-N > 100 µM | Hs-578T > 100 µM | MCF7 > 100 µM | DU-145 > 100 µM | SF-295 > 100 µM | COLO 205 > 100 µM

CC1(C)N=C(c2ccccc2)SC12S[C@@H]1CCCC[C@H]1S2
inactive: BT-549 > 100 µM | OVCAR-4 > 100 µM | RXF 393 > 100 µM | MDA-MB-231 > 100 µM | NCI/ADR-RES > 100 µM | UACC-257 41.5 µM | A498 17.9 µM | T47D 35.8 µM | MDA-N 20.7 µM | NCI-H522 > 100 µM | Hs-578T 4.57 µM | MCF7 64.4 µM | DU-145 > 100 µM | SF-295 > 100 µM | COLO 205 > 100 µM

Oc1nc2ccccc2c2oc3ccccc3c12
inactive: BT-549 > 100 µM | OVCAR-4 > 100 µM | RXF 393 82 µM | MDA-MB-231 83.8 µM | NCI/ADR-RES > 100 µM | UACC-257 > 100 µM | A498 > 100 µM | T47D 16.1 µM | MDA-N > 100 µM | NCI-H522 > 100 µM | Hs-578T 37.9 µM | MCF7 > 100 µM | DU-145 > 100 µM | SF-295 > 100 µM | COLO 205 > 100 µM

C=CCCC(On1c(-c2ccc(Cl)cc2)csc1=S)c1ccccc1 (centres undefined)
inactive: BT-549 58.3 µM | OVCAR-4 38.5 µM | RXF 393 29.7 µM | MDA-MB-231 68.9 µM | NCI/ADR-RES 13.7 µM | UACC-257 33 µM | A498 > 100 µM | T47D 17 µM | MDA-N 3.36 µM | NCI-H522 12.4 µM | Hs-578T 34.4 µM | MCF7 16.7 µM | DU-145 49.4 µM | SF-295 13.9 µM | COLO 205 22.5 µM

O=C(Nc1cccc([N+](=O)[O-])c1)C(=O)C(C(=O)c1ccccc1F)C1OC(=O)C2C=CC=CC21 (centres undefined)
inactive: KM-20L2 41.2 µM | OVCAR-4 47.2 µM | RXF 393 18.5 µM | UACC-257 82 µM | A498 96.6 µM | LXFL 529 30.5 µM | NCI-H522 18.9 µM | XF498 40.3 µM | SF-295 43.9 µM | COLO 205 35.2 µM

COS(=O)c1cc(Cl)cc(Cl)c1O (centres undefined)
inactive: OVCAR-4 > 100 µM | RXF 393 > 100 µM | DMS-114 > 100 µM | UACC-257 > 100 µM | A498 > 100 µM | LXFL 529 > 100 µM | NCI-H522 18 µM | XF498 > 100 µM

CCOC(=O)C(O)(NC(=O)c1ccccc1F)C(F)(F)F (centres undefined)
inactive: BT-549 > 100 µM | OVCAR-4 > 100 µM | RXF 393 > 100 µM | MDA-MB-231 2.69 µM | NCI/ADR-RES > 100 µM | UACC-257 > 100 µM | T47D > 100 µM | MDA-N > 100 µM | NCI-H522 > 100 µM | Hs-578T > 100 µM | MCF7 > 100 µM | DU-145 > 100 µM | SF-295 > 100 µM | COLO 205 > 100 µM

CCOC(=O)Cc1cnc(NC(NC(=O)CC)(C(F)(F)F)C(F)(F)F)s1
inactive: BT-549 > 100 µM | RXF 393 > 100 µM | MDA-MB-231 > 100 µM | UACC-257 > 100 µM | A498 > 100 µM | T47D > 100 µM | MDA-N > 100 µM | NCI-H522 > 100 µM | Hs-578T > 100 µM | MCF7 > 100 µM | DU-145 > 100 µM
